Literature values in patent US20050182029A1, “Metformin salts of lipophilic acids” (Sonus Pharmaceuticals, Inc., priority 2002, published 2005).

Key:
[1] = healthy human subjects

In the case of `CN(C)C(=N)N=C(N)N` [metformin], the “maximum metformin plasma levels (Cmax)” value (controlled clinical trials, even at maximum doses) is given as ≤ 4000 ng/mL, the steady-state plasma concentration (usual metformin doses and dosing schedules, reached within 24 to 48 hours) is given as “less than 1 ug/mL” and the colonic absorption [1] is given as “poor colonic absorption”.
